According to US12685315B2, “Herbicidal combination” (UPL do Brasil Industria e Comercio de Insumos Agropecuarios …, priority 2019, dated 2026):

Legend:
[1] = system: yellow nutsedge; test: Field trial, post emergence, efficacy on yellow nutsedge (Blacksburg, VA); assay type: in vivo, Cyperus esculentus; conditions: 2-way mixes 0.5X, 3-way mix 0.33X; for Yellow nut sedge at 29 DAT (Percentage weed cover): dosage: singles 1X; for Yellow nut sedge at 29 DAT (Percentage Control): post emergence, dosage: singles 1 X
Experimental: A field trial was conducted to evaluate effectiveness of the combinations of three active ingredients according to the invention when used post emergence, at different rates, compared to industry standards—stand alone and 2 way mixture molecules for efficacy of yellow nutsedge. The active ingredient combination used in the trial was bentazon+halosulfuron+sulfentrazone. The trial was conducted in Blacksburg, VA and was initiated on June 6 under given protocol. The plots were in fallow area primarily covered with yellow nutsedge and tall fescue and were sprayed at 4 week intervals. (2 applications total). The application dosages of the herbicides, when used in isolation and when used in the combinations were as follows: […]

[2] = system: Brachiaria decumbens (BRADC); test: Field trial of triple mixes of amicarbazone, pre and post-emergence weed control; assay type: in vivo
Experimental: (§1) Field trials were done to evaluate the efficacy and synergism of the triple mixes of amicarbazone with other herbicides for the control of weeds in pre and post-emergence application.
(§2) The composition of the present invention was applied. This test was performed for species of weeds: Grasses namely BRADC=Brachiaria decumbens, CCHEC=Cenchrus echinatus, ELEIN=Eleusine indica, TRCIN=Digitaria insularis and Broadleaves namely IAQGR=Ipomoea grandifolia, EPHHL=Euphorbia heterophylla, COMBE=Commelina benghalensis. Data were collected at various period after application of the composition to the soil and calculated.

[3] = system: Ipomoea grandifolia (IAQGR); test: Field trial of triple mixes of amicarbazone, pre-emergence weed control; assay type: in vivo
Experimental: as §1, §2

[4] = system: Cenchrus echinatus (CCHEC); test: Field trial of triple mixes of amicarbazone, pre and post-emergence weed control; assay type: in vivo; conditions: Table 2, Post-Emergence, dose g ai/ha: Amicarbazone 75, Isoxaflutole 15, Atrazine 250, mix 75 + 15 + 250
Experimental: as §1, §2

SMILES: CC(C)N1C(=O)c2ccccc2NS1(=O)=O [Bentazone]
- Yellow nut sedge at 29 DAT (Percentage weed cover) ([1]; 05/07, untreated 59): 10%
- Yellow nut sedge at 29 DAT (Percentage Control) ([1]; 05/07): 76%
- Yellow nut sedge at 29 DAT (Percentage weed cover) ([1]; 13/06, untreated 50): 40%
- Yellow nut sedge at 29 DAT (Percentage Control) ([1]; 13/06): 65%
- Yellow nut sedge at 29 DAT (Percentage weed cover) ([1]; 20/6, untreated 49): 8%
- Yellow nut sedge at 29 DAT (Percentage Control) ([1]; 20/6): 75%

SMILES: CC1(C)CON(Cc2ccccc2Cl)C1=O [Clomazone]
- % Control ([2]; Table 5, Post-Emergence, 21 DAA, dose g ai/ha: Amicarbazone 250, Clomazone 250, Diuron 250, mix 250 + 250 + 250): 71.3%
- % Control ([2]; Table 5, Post-Emergence, 28 DAA, dose g ai/ha: Amicarbazone 250, Clomazone 250, Diuron 250, mix 250 + 250 + 250): 63.8%
- % Control ([2]; Table 5, Post-Emergence, 35 DAA, dose g ai/ha: Amicarbazone 250, Clomazone 250, Diuron 250, mix 250 + 250 + 250): 61.3%
- % Control ([2]; Table 5, Pre-Emergence, 21 DAA, dose g ai/ha: Amicarbazone 250, Clomazone 250, Diuron 250, mix 250 + 250 + 250): 89.5%
- % Control ([2]; Table 5, Pre-Emergence, 28 DAA, dose g ai/ha: Amicarbazone 250, Clomazone 250, Diuron 250, mix 250 + 250 + 250): 86.5%
- % Control ([2]; Table 5, Pre-Emergence, 35 DAA, dose g ai/ha: Amicarbazone 250, Clomazone 250, Diuron 250, mix 250 + 250 + 250): 86.3%
- % Control ([3]; Table 4, 7 DAA, dose g ai/ha: Amicarbazone 250, Clomazone 250, Diuron 250, mix 250 + 250 + 250): 57.5%
- % Control ([3]; Table 4, 14 DAA, dose g ai/ha: Amicarbazone 250, Clomazone 250, Diuron 250, mix 250 + 250 + 250): 41.3%
- % Control ([3]; Table 4, 28 DAA, dose g ai/ha: Amicarbazone 250, Clomazone 250, Diuron 250, mix 250 + 250 + 250): 39.5%

SMILES: COc1cc(OC)nc(NC(=O)NS(=O)(=O)c2c(C(=O)O)c(Cl)nn2C)n1 [Halosulfuron]
- Yellow nut sedge at 29 DAT (Percentage weed cover) ([1]; 05/07, untreated 59): 8%
- Yellow nut sedge at 29 DAT (Percentage Control) ([1]; 05/07): 81%
- Yellow nut sedge at 29 DAT (Percentage weed cover) ([1]; 13/06, untreated 50): 50%
- Yellow nut sedge at 29 DAT (Percentage Control) ([1]; 13/06): 36%
- Yellow nut sedge at 29 DAT (Percentage weed cover) ([1]; 20/6, untreated 49): 16%
- Yellow nut sedge at 29 DAT (Percentage Control) ([1]; 20/6): 60%

SMILES: CS(=O)(=O)c1cc(C(F)(F)F)ccc1C(=O)c1cnoc1C1CC1 [Isoxaflutole]
- % Control ([2]; Table 1, Post-Emergence, 7 DAA, dose g ai/ha: Amicarbazone 75, Isoxaflutole 15, Atrazine 250, mix 75 + 15 + 250): 66.3%
- % Control ([2]; Table 1, Post-Emergence, 21 DAA, dose g ai/ha: Amicarbazone 75, Isoxaflutole 15, Atrazine 250, mix 75 + 15 + 250): 65.0%
- % Control ([2]; Table 1, Post-Emergence, 28 DAA, dose g ai/ha: Amicarbazone 75, Isoxaflutole 15, Atrazine 250, mix 75 + 15 + 250): 68.8%
- % Control ([2]; Table 1, Pre-Emergence, 7 DAA, dose g ai/ha: Amicarbazone 75, Isoxaflutole 15, Atrazine 250, mix 75 + 15 + 250): 86.3%
- % Control ([2]; Table 1, Pre-Emergence, 21 DAA, dose g ai/ha: Amicarbazone 75, Isoxaflutole 15, Atrazine 250, mix 75 + 15 + 250): 53.8%
- % Control ([2]; Table 1, Pre-Emergence, 28 DAA, dose g ai/ha: Amicarbazone 75, Isoxaflutole 15, Atrazine 250, mix 75 + 15 + 250): 50.0%
- % Control ([4]; 7 DAA): 68.8%
- % Control ([4]; 28 DAA): 91.3%
- % Control ([4]; 35 DAA): 93.3%
- % Control ([3]; Table 3, 14 DAA, dose g ai/ha: Amicarbazone 75, Isoxaflutole 15, Atrazine 250, mix 75 + 15 + 250): 15.0%
- % Control ([3]; Table 3, 21 DAA, dose g ai/ha: Amicarbazone 75, Isoxaflutole 15, Atrazine 250, mix 75 + 15 + 250): 0.0%
- % Control ([3]; Table 3, 28 DAA, dose g ai/ha: Amicarbazone 75, Isoxaflutole 15, Atrazine 250, mix 75 + 15 + 250): 0.0%
